In publication PMC5104186 (Cell reports, 2016):

Key:
human GAD67 (hGAD67) = human GAD67 (hGAD67) (Homo sapiens, UniProt Q99259); experiment: biochemical
α1β1γ2 GABA-A receptor = settings: agonist; nH 1.3
α5β1γ2 GABA-A receptor = settings: agonist; +50 mV; nH 1.8

Sequence of human GAD67 (hGAD67) (Q99259 whole entry): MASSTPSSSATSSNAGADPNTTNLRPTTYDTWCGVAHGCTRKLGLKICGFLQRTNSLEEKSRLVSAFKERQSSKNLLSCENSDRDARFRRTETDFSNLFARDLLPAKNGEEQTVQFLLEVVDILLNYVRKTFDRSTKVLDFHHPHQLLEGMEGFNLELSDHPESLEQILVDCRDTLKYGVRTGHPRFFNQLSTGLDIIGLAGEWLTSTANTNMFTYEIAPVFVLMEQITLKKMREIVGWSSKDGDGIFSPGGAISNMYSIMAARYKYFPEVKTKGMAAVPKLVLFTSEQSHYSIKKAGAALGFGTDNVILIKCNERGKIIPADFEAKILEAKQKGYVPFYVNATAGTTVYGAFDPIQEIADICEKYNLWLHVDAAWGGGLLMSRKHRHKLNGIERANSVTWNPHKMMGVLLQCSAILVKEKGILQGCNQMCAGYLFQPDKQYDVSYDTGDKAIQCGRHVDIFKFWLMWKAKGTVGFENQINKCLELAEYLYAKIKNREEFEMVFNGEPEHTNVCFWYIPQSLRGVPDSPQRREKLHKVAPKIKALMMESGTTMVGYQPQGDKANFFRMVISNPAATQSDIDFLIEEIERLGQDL

Ki (human GAD67 (hGAD67)): 7.8 mM | EC50 (α1β1γ2 GABA-A receptor): 8.3 mM | EC50 (α5β1γ2 GABA-A receptor): 5.4 mM
SMILES: O=C(O)[C@@H]1CCCN1 [L-proline]
